In brackets after ≈: the same amount, converted by molar mass. Where two headings read alike, the source gives them in different places. Bridge positions count the residues as written; N and C are the ends. Square brackets hold non-standard residues; d marks the D form. Ends that are not written are not given here. Peptide text beside a SMILES is read from it. Abu = CC[C@H](N)C(=O)O; Dhb = C/C=C(\N)C(=O)O; Dha = C=C(N)C(=O)O
Experiments:
SV40 cells = details: 700 AU/mL (approximately 10–20 mg/mL), trypan blue, ref Murinda et al., 2003; cited from earlier work
Excerpt: (§1) To the best of our knowledge, this is the first study that evaluates the cytotoxicity of several bacteriocins with different structures, mechanisms of actions and spectra of inhibitory activity.

L. ivanovii HPB 28 = assay type: cell-based, Listeria ivanovii; details: broth microdilution
Excerpt: (§2) Microcin J25 was produced by Escherichia coli MC4100 carrying the plasmid PTUC 202 ([Solbiati et al., 1999]). For the antibacterial activity of pure compounds and digestion mixture, Listeria ivanovii HPB28 (Canada Health Protection Branch) was used as indicator strain for nisin and pediocin PA-1, while Staphylococcus aureus ATCC 6538 (ATCC) and Salmonella enterica subsp. enterica serovar Newport ATCC 6962 (later referred to as S. Newport, ATCC) were used as indicator strains for bactofencin A (M14L, M18L) and microcin J25, respectively. L. ivanovii HPB28 and S. aureus were cultured in Tryptic Soy (Difco Laboratories, Spark, MD, United States) supplemented with 0.6% yeast extract (TSBYE), at 30 and 37°C, respectively. S. Newport was cultured at 37°C overnight in Luria-Bertani (LB) (Difco Laboratories, Spark, MD, United States). All strains were maintained at –80°C as stock cultures in their corresponding culture media supplemented with 20% glycerol, and propagated twice at 24 h intervals before use.
(§3) Quantitative determination of inhibitory activity of bacteriocins was carried out using the broth microdilution method as described by [Ben Said et al. (2020)]. Two-fold serial dilutions of bacteriocins (125 μL) were prepared in an appropriate medium in a clear 96-well flat-bottom microtiter plate. Indicator strains were diluted to 10^5 CFU/mL, from which 50 μL were added to each well. The microtiter plates were incubated for 24 h under appropriate conditions, and optical densities were recorded at 595 nm (Infinite M200, Tecan, Switzerland). Control wells contained untreated culture and appropriate medium (blanks). The number of inhibition wells was noted and inhibition activities were calculated in μg/mL.

[1] = cited from earlier work
Excerpt: There are limited number of studies regarding the stability of bacteriocins in the GI tract. It has been shown that bacteriocins can be degraded by proteolytic enzymes such as pepsin, trypsin and chymotrypsin in the stomach or intestine ([Fernandez et al., 2013]). […] However, in the current study, pediocin PA-1(M31L) and bactof ...

rat erythrocytes = experiment: Hemolytic activity; assay type: cell-based; details: 0.4 to 400 μg/mL, 45 min, 37°C
Method: The experiment was performed after prior approval from the local ethics committee by TransBIOTech laboratory. Hemolytic potential of bacteriocins was evaluated according to [FDA (2005)]. Rat blood was collected into a heparinized tube and added in a 1:1 volume (100 μL) to serially diluted compounds (in 100 μL PBS), in a conical 96-well plate. 10% Triton X-100 and PBS were used as a positive and negative controls, respectively. The plates were sealed and incubated for 45 min at 37°C prior to centrifugation at 2,000 g for 10 min to pellet red blood cells. The supernatant was then transferred into clear 96-well plates and the absorbance was read at 540 nm (hemoglobin). The percentage of hemolysis was calculated as follow, with RBC standing for red blood cells:
%Hemolysis=AbsorbanceofRBCtreatedwithbacteriocins-AbsorbanceofRBCtreatedwithPBS/AbsorbanceofRBCtreatedwithTritonX100-AbsorbanceofRBCtreatedwithPBS

S. aureus ATCC 6538 = assay type: cell-based, Staphylococcus aureus; details: for Total activity: broth microdilution
Excerpt: as §2, §3

S. Newport ATCC 6962 = assay type: cell-based, Salmonella enterica subsp. enterica serovar Newport; details: for Total activity: broth microdilution
Excerpt: as §2, §3

Vero cells = details: cited from earlier work
Excerpt: as §1

HT29 (epithelial cells) = details: MTT assay, ref Maher and McClean, 2006; cited from earlier work
Excerpt: as §1

Caco-2 = details: MTT assay, ref Maher and McClean, 2006; cited from earlier work
Excerpt: as §1

[2] = test system: human cells relevant to oral cavity; details: concentration up to 200 μg/mL; ref Shin et al. (2015); cited from earlier work
HepG2 cells = details: ref Paiva et al., 2012; cited from earlier work
Excerpt: as §1

MCF-7 cells = details: ref Paiva et al., 2012; cited from earlier work
Excerpt: as §1

sheep erythrocytes = details: sheep blood cells, 33.75 μM (113 μg/mL); ref Paiva et al., 2012; cited from earlier work
Method: (§4) Hemolytic activity is used for initial toxicity assessment and estimation of therapeutic index. Nisin remains to be the most studied bacteriocin, while there are very few data available for the other bacteriocins. […] Hemolytic activity of nisin A (Nisaplin®) at 3.35 μg/mL concentration was reported to be 6% in human red blood cells. In another study by [Maher and McClean (2006)], hemolytic activity exerted by 230 μM (771 μg/mL) nisin A (Nutrition 21) was shown ...

human red blood cells = details: 750 μM (2.5 mg/mL), ref Begde et al., 2011; cited from earlier work
Method: as §4

[3] = after oral conditions (SSF, 2 min, 37°C)
[4] = pure compound without GI digestion, 24 h, OD 595 nm
[5] = TIM-1 dynamic model, ref Kheadr et al., 2010

In the case of “pediocin PA-1 (KYYGNGVTCGKHSCSVDWGKATTCIINNGAMAWATGGHQGNHKC; disulfide 9-14, 24-44; UniProt P29430 19-62, looked up) [wild-type bacteriocin naturally produced by Pediococcus acidilactici, literature data]”, the “Cell viability reduced to” value (SV40 cells) is given as 36%, the Total activity (L. ivanovii HPB 28; [3]) is given as 0.18 AU/mL and the Total activity (L. ivanovii HPB 28; [4]) is given as 0.18 AU/mL. For the same molecule, the “Stability in the small intestine” value [1, 5] was “completely degraded” and the “Stability in the stomach” value [1, 5] was “stable”.

With “KYYGNGVTCGKHSCSVDWGKATTCIINNGALAWATGGHQGNHKC-OH (disulfide 9-14, 24-44) [pediocin PA-1(M31L)]” the “Concentration above which dose-dependent increase in percentage of hemolysis was shown” value (rat erythrocytes) was “higher than 50 μg/mL”.

`CC(C)C[C@@H]1NC(=O)CNC(=O)[C@H]([C@@H](C)O)NC(=O)[C@@H]2CCCN2C(=O)[C@H](CC(C)C)NC(=O)CNC(=O)[C@H](CC(N)=O)NC(=O)[C@H](CC(N)=O)NC(=O)[C@H](Cc2ccc(O)cc2)NC(=O)[C@H](C(C)C)NC(=O)[C@H](CCCNC(=N)N)NC(=O)[C@@H](NC(=O)[C@H](CCCNC(=N)N)NC(=O)[C@H](Cc2c[nH]cn2)NC(=O)[C@H](CCCCN)NC(=O)[C@H](CCCCN)NC(=O)[C@H](CCCNC(=N)N)NC(=O)[C@@H](N)CCCCN)CSSC[C@@H](C(N)=O)NC(=O)[C@H](Cc2c[nH]c3ccccc23)NC(=O)[C@H](CCCNC(=N)N)NC(=O)[C@H](Cc2ccc(O)cc2)NC1=O` [bactofencin A(M14L, M18L)] (H-KRKKHRCRVYNNGLPTGLYRWC-NH2; disulfide 7-22 (inferred); N-terminus and C-terminus assumed) showed an MIC (S. aureus ATCC 6538; ATCC 6538, 24 h) of 5 µg/mL (≈ 1.82 µM), a Total activity (S. aureus ATCC 6538; [3]) of 10.4 AU/mL and a Total activity (S. aureus ATCC 6538; [4]) of 10.4 AU/mL.

In the case of `CC[C@H](C)[C@H](NC(=O)CNC(=O)[C@@H](NC(=O)[C@H](Cc1ccccc1)NC(=O)[C@H](Cc1ccc(O)cc1)NC(=O)[C@@H]1CCC(=O)NCC(=O)NCC(=O)N[C@@H](C)C(=O)NCC(=O)N[C@@H](Cc2cnc[nH]2)C(=O)N[C@@H](C(C)C)C(=O)N2CCC[C@H]2C(=O)N1)C(C)C)C(=O)NCC(=O)N[C@H](C(=O)N1CCC[C@H]1C(=O)N[C@H](C(=O)N[C@@H](CO)C(=O)N[C@@H](Cc1ccccc1)C(=O)N[C@@H](Cc1ccc(O)cc1)C(=O)NCC(=O)O)[C@@H](C)CC)[C@@H](C)O` [microcin J25] (GGAGHVPEYFVGIGTPISFYG-OH; lactam N-8), the “Degradation upon exposure to pancreatin (small intestine)” value [1] is given as “only partially degraded” and the “Resistance to the proteolytic enzymes in the stomach” value [1] is given as “highly resistant”.

`CC[C@H](C)[C@H](NC(=O)CNC(=O)[C@@H](NC(=O)[C@H](Cc1ccccc1)NC(=O)[C@H](Cc1ccc(O)cc1)NC(=O)[C@@H]1CCC(=O)NCC(=O)NCC(=O)N[C@@H](C)C(=O)NCC(=O)N[C@@H](Cc2c[nH]cn2)C(=O)N[C@@H](C(C)C)C(=O)N2CCC[C@H]2C(=O)N1)C(C)C)C(=O)NCC(=O)N[C@H](C(=O)N1CCC[C@H]1C(=O)N[C@H](C(=O)N[C@@H](CO)C(=O)N[C@@H](Cc1ccccc1)C(=O)N[C@@H](Cc1ccc(O)cc1)C(=O)NCC(=O)O)[C@@H](C)CC)[C@@H](C)O` [microcin J25] (GGAGHVPEYFVGIGTPISFYG-OH; lactam N-8 (inferred); C-terminus assumed) showed an MIC (S. Newport ATCC 6962; ATCC 6962, 24 h) of 0.0356 µg/mL (≈ 0.0169 µM), a Total activity (S. Newport ATCC 6962; after gastric conditions (SGF, pepsin 2000 U/mL, lipase 60 U/mL, pH 3, 90 min, 37°C)) of 0.0712 AU/mL and a Total activity (S. Newport ATCC 6962; [3]) of 0.0712 AU/mL. The Total activity (S. Newport ATCC 6962; after small intestinal conditions (SIF, bile salt 10 mmol/L, pancreatin 100 U/mL, pH 7, 2 h, 37°C)) was 0.356 AU/mL and the Total activity (S. Newport ATCC 6962; [4]) was 0.0712 AU/mL.

For “nisin A (I[Dhb]AI[Dha]LC[Abu]PGCK[Abu]GALMGCNMK[Abu]A[Abu]CHCSIHV[Dha]K; thioether (positions not given here); not fully specified (residues 7, 11, 19, 26, 28, bridges); UniProt P13068 24-57, looked up) [nisin A (Nisaplin®), commercial nisin A product Nisaplin (Danisco)]”, the EC50 (Vero cells; LDH cytotoxicity assay, ref Vaucher et al. (2010)) is listed as 0.62 µg/mL.

In the case of “nisin A (I[Dhb]AI[Dha]LC[Abu]PGCK[Abu]GALMGCNMK[Abu]A[Abu]CHCSIHV[Dha]K; thioether (positions not given here); not fully specified (residues 7, 11, 19, 26, 28, bridges); UniProt P13068 24-57, looked up) [nisin A (Nutrition 21), commercial nisin A (Nutrition 21)]”, the IC50 (HT29 (epithelial cells)) is given as 301.5 µg/mL and the IC50 (Caco-2) is given as 385.7 µg/mL.

For “nisin Z (I[Dhb]AI[Dha]LC[Abu]PGCK[Abu]GALMGCNMK[Abu]A[Abu]CNCSIHV[Dha]K; thioether (positions not given here); not fully specified (residues 7, 11, 19, 26, 28, bridges); UniProt P29559 24-57, looked up) [nisin Z (Handary, Brussels, Belgium), commercial nisin Z from Handary]”, the Toxic effect [2] is listed as “did not exert any toxic effect”.

For nisin C [nisin C (Chrisin®)], the “Concentration reducing viability to 50%” value (HepG2 cells) is listed as 352 µg/mL, the “Concentration reducing viability to 50%” value (MCF-7 cells) is listed as 352 µg/mL and the “Concentration reducing viability to 50%” value (Vero cells; ref Paiva et al., 2012) is listed as 45.21 µg/mL. The Hemolysis (sheep erythrocytes) was 6.6%.

In the case of nisin, the Relative hemolysis (human red blood cells) is given as 10%.

— paper PMC8824275, “Gastrointestinal Stability and Cytotoxicity of Bacteriocins From Gram-Positive and Gram-Negative Bacteria: A Comparative in vitro Study” (Frontiers in Microbiology, 2022)
